pEC50: −log10 of the molar value. Structures can show the parent of a compound that is named as a salt. Where two headings read alike, the source gives them in different places.
Experiments:
Hep3B = assay: Quantitative HIF1α MSD immunoassay, Hep3B; format: cell-based; settings: Homo sapiens, read-out: HIF1α EC50
Procedure: Cells were seeded into 96-well cell culture plates (150 μl culture volume) at approximately 60–70% confluency at least 12 h prior to the compound treatment. Half of the culture medium (75 μl/well) were removed and 75 μl/well of medium containing the desired concentrations of compounds were added into cells for 5 h. The cell medium was then removed and the cells were washed once with phosphate buffered saline (PBS), followed by the addition of lysis buffer (20 mM Tris pH 7.4, 450 mM NaCl, 1 mM EDTA, 1 mM EGTA, 0.5% Triton X-100, 1x complete protease inhibitor cocktail and 100 μM DFO). Plates were then left at 4°C with shaking. […] Plates were washed thrice with Tris Wash Buffer, added with 150 μl/well 2X Read Buffer (R92TC, Meso Scale Discovery) before being read with an MSD Sector S600 plate reader (Meso Scale Discovery). Signals generated were normalized to “lysis buffer-only” controls.
To quantify the cellular efficiency of PHD inhibition, we developed an electrochemiluminescence-based assay for the quantification of HIF1α levels using the Meso Scale Discovery (MSD, http://www.mesoscale.com) technology (HIF1α MSD assay), which is based on the capture and detection of HIF1α protein using two specific HIF1α antibodies. […]

HIF1α and HIF2α = assay: HIFα induction in tissues of treated mice (immunoblotting); format: in vivo, C57BL/6 mice; settings: i.p.; for HIF1α and HIF2α induction in liver, kidney and heart / HIF1α and HIF2α induction in the brain: equimolar: IOX2 37.7 mg/kg, IOX4 35 mg/kg, DMOG 75 mg/kg
Procedure: All animal experiments were performed on male C57BL/6 mice aged 3 months (purchased from Harlan Laboratories, Blackthorn) housed in specific pathogen free conditions with free access to water and standard chow. Mice were injected intraperitonially with the inhibitor (dissolved in Hanks’ buffered saline solution, pH 7.0, 5% DMSO final) or vehicle at the indicated doses for the indicated time as previously described. Tissues from treated mice were harvested and ‘snap frozen’ with liquid nitrogen before being stored at -80°C. For immunoblotting, a portion of the tissues was removed, weighed and homogenised in urea/SDS buffer before being analysed by immunoblotting with HIF1α rabbit polyclonal antibody (10006421, Cayman Chemical, 1:1000) or HIF2α rabbit polyclonal antibody (PM9 [27], 1:1000). For RNA extraction, tissues were ‘snap frozen’ in liquid nitrogen immediately after harvesting, then ground to a fine powder using a cryogenic tissue pulveriser, keeping samples on dry ice at all times and processed for total RNA extraction using the mirVana miRNA isolation kit (AM1560, Life Technologies) according to the manufacturer’s protocol for processing frozen tissues. All animal procedures were compliant with the UK Home Office Animals (Scientific Procedures) Act 1986 and Local Ethical Review Procedures (University of Oxford Medical Sciences Division Ethical Review Committee).
The inhibitors or vehicle controls were injected intraperitonially into wild type C57BL/6 mice and sacrificed after the indicated treatment time before harvesting their tissues to be analysed for HIFα levels by immunoblotting.

HeLa cells = assay: Immunoblotting of HIF1α induction in HeLa cells; format: cell-based, human; settings: VHL-competent HeLa cells, immunoblot
Procedure: Human cell lines (RCC4, HeLa, Hep3B, MCF-7 and U2OS) were cultured in DMEM (D6546-500ML; Sigma Aldrich) each supplemented with 10% fetal bovine serum (F7524-500ML; Sigma Aldrich), 2 mM L-glutamine (G7513- 100ML; Sigma Aldrich), 50 units/ml of penicillin, and 50 μg/ml of streptomycin (P0781-100ML; Sigma Aldrich). The RCC4 cell line was a gift from C.H.C.M. Buys (University of Groningen, [2]), the HeLa and Hep3B cell lines were from the European Collection of Cell Cultures (ECACC), the MCF-7 cell line was from the American Type Culture Collection (ATCC) and the U2OS cell line was a gift from S.Galey (ICRF Clare Hall Laboratories, United Kingdom). Cells were treated either with DMSO (control) or compounds (dissolved in DMSO) and added directly into the cell culture medium to the desired final concentration for 4–5 h as previously described.
Cells were extracted using urea/SDS buffer (6.7 M urea, 10 mM Tris-HCl pH 6.8, 10% glycerol and 1% SDS) and processed for immunoblotting as described. The following primary antibodies were used for immunoblotting: mouse monoclonal HIF1α antibody clone 54 (610958, BD Transduction Laboratories, 1:1000), rabbit polyclonal HIF1α hydroxy-Pro402 antibody (07–1585, Millipore, 1:1000), rabbit monoclonal HIF1α hydroxy-Pro564 antibody clone D43B5 (3434S, Cell Signaling, 1:500), mouse monoclonal HIF1α hydroxy-Asn803 antibody (a kind gift from Dr M. K. Lee, Republic of Korea, 1:4000), mouse monoclonal PHD2 antibody clone 76a (1:10), mouse monoclonal FIH antibody clone 162c (1:200) and β-actin/HRP (clone AC15, Abcam). HRP-conjugated swine polyclonal anti-rabbit IgG (P0399, Dako), and goat polyclonal anti-mouse IgG (P0447, Dako) were used as secondary antibodies.
In this cell line, the extent of the differential HIF1α prolyl hydroxylation at the N-terminal and C-terminal oxygen-dependent degradation domains (HyPro402 and HyPro564, respectively), as well as HIF1α asparaginyl hydroxylation at the C-terminal transactivation domain (HyAsn803) can be interrogated by immunoblotting using hydroxylation specific antibodies.

Compound	pEC50 (Hep3B; 5 h treatment, MSD assay)	HIF1α and HIF2α induction in liver, kidney and heart (HIF1α and HIF2α; 1 h)	HIF1α and HIF2α induction in the brain (HIF1α and HIF2α; 1 h)	HIF1α induction in mouse liver (HIF1α and HIF2α; IOX2 37.7 mg/kg, IOX3 30 mg/kg (equivalent molar dose), 1 h and […])	pEC50 (Hep3B; 5 h)	HIF1α induction (HeLa cells)	concentration at which activity (HIF1α induction) observed (HeLa cells)	HIF1α and HIF2α induction in the liver and brain, dose dependence (HIF1α and HIF2α; 1 h, 17.5 to 70 mg/kg)
O=C(O)CNC(=O)c1c(O)c2ccccc2n(Cc2ccccc2)c1=O [IOX2]	4.07	strongest induction	not	induced in mouse liver after 1 h	–	–	–	–
CC(C)(C)OC(=O)c1ccc(-n2[nH]cc(-n3ccnn3)c2=O)nc1 [IOX4, t-Butyl 6-(5-oxo-4-(1H-1,2,3-triazol-1-yl)-2,5-dihydro-1H-pyrazol-1-yl)nicotinate]	–	induction of HIF1α and HIF2α	induced	–	4.95	induced HIF1α	≥ 1 µM	Dose-dependent induction
O=C(O)c1ccc(-n2[nH]cc(-n3ccnn3)c2=O)nc1 [compound 1, 6-(5-oxo-4-(1H-1,2,3-triazol-1-yl)-2,5-dihydro-1H-pyrazol-1-yl)pyridine-3-carbocylic acid hydrochloride]	–	–	–	–	–	induced HIF1α	–	–

From article PMC4492579, “Potent and Selective Triazole-Based Inhibitors of the Hypoxia-Inducible Factor Prolyl-Hydroxylases with Activity in the Murine Brain” (PLoS ONE, 2015)
